# “And” between values parts separate entries of the source, which are not always exact repeats. Equal values may be shown once. Numbers after ± are expanded uncertainties.
# How the values were obtained:
# [1] = excess molar enthalpy (molar enthalpy of mixing); xn = mol fraction of the nth substance listed; conditions: 298.15 K, 101 kPa, Liquid, Calvet calorimetry
# [2] = xn = mol fraction of the nth substance listed; conditions: 298.15 K, 101 kPa, Liquid, Vibrating tube method
# [3] = 298.15 K; 101.33 kPa; Liquid; Vibrating tube method
smiles,measurement,setting,value
Cc1ccncc1 [4-methylpyridine] + O,excess molar enthalpy,[1]; x1 = 0.000919,-0.00907 kJ/mol and -0.00905 kJ/mol
same,excess molar enthalpy,[1]; x1 = 0.001837,-0.0181 kJ/mol and -0.018 kJ/mol
same,excess molar enthalpy,[1]; x1 = 0.002753,-0.0268 ± 0.00098 kJ/mol
same,excess molar enthalpy,[1]; x1 = 0.002754,-0.0268 ± 0.00098 kJ/mol
same,excess molar enthalpy,[1]; x1 = 0.003667,-0.0353 ± 0.001 kJ/mol
same,excess molar enthalpy,[1]; x1 = 0.003668,-0.0353 ± 0.001 kJ/mol
same,excess molar enthalpy,[1]; x1 = 0.00458,-0.0438 kJ/mol
same,excess molar enthalpy,[1]; x1 = 0.005492,-0.052 kJ/mol and -0.0521 kJ/mol
same,mass density,[2]; x1 = 0.000919,997.023 ± 0.21 kg/m3 and 997.024 ± 0.21 kg/m3
same,mass density,[2]; x1 = 0.001837,997.005 ± 0.21 kg/m3
same,mass density,[2]; x1 = 0.002753,996.988 ± 0.21 kg/m3
same,mass density,[2]; x1 = 0.002754,996.988 ± 0.21 kg/m3
same,mass density,[2]; x1 = 0.003667,996.972 ± 0.21 kg/m3
same,mass density,[2]; x1 = 0.003668,996.971 ± 0.21 kg/m3
same,mass density,[2]; x1 = 0.00458,996.955 ± 0.21 kg/m3 and 996.956 ± 0.21 kg/m3
same,mass density,[2]; x1 = 0.005492,996.939 ± 0.21 kg/m3
CN1CCOCC1 [N-methylmorpholine],mass density,[3],914.15 ± 0.45 kg/m3
CN1CCOCC1 [N-methylmorpholine] + CO,excess molar enthalpy,[1]; x1 = 0.003662,-0.0217 ± 0.00096 kJ/mol
same,excess molar enthalpy,[1]; x1 = 0.003663,-0.0218 ± 0.00096 kJ/mol
same,excess molar enthalpy,[1]; x1 = 0.005484,-0.0325 kJ/mol and -0.0323 kJ/mol
same,excess molar enthalpy,[1]; x1 = 0.007298,-0.043 ± 0.0011 kJ/mol
same,excess molar enthalpy,[1]; x1 = 0.007299,-0.0432 ± 0.0011 kJ/mol
same,excess molar enthalpy,[1]; x1 = 0.009104,-0.0534 ± 0.0012 kJ/mol
same,excess molar enthalpy,[1]; x1 = 0.009108,-0.0536 ± 0.0012 kJ/mol
same,excess molar enthalpy,[1]; x1 = 0.0109,-0.0636 ± 0.0013 kJ/mol
same,excess molar enthalpy,[1]; x1 = 0.01091,-0.0637 ± 0.0013 kJ/mol
same,mass density,[2]; x1 = 0.001834,787.377 ± 0.61 kg/m3 and 787.359 ± 0.61 kg/m3
same,mass density,[2]; x1 = 0.003662,788.239 ± 0.61 kg/m3
same,mass density,[2]; x1 = 0.003663,788.267 ± 0.61 kg/m3
same,mass density,[2]; x1 = 0.005484,789.159 ± 0.61 kg/m3 and 789.119 ± 0.61 kg/m3
same,mass density,[2]; x1 = 0.007298,790.004 ± 0.61 kg/m3
same,mass density,[2]; x1 = 0.007299,790.044 ± 0.61 kg/m3
same,mass density,[2]; x1 = 0.009104,790.862 ± 0.61 kg/m3
same,mass density,[2]; x1 = 0.009108,790.908 ± 0.61 kg/m3
same,mass density,[2]; x1 = 0.0109,791.711 ± 0.61 kg/m3
same,mass density,[2]; x1 = 0.01091,791.753 ± 0.61 kg/m3
CN1CCOCC1 [N-methylmorpholine] + O,excess molar enthalpy,[1]; x1 = 0.000812,-0.0237 ± 0.00096 kJ/mol
same,excess molar enthalpy,[1]; x1 = 0.000813,-0.0236 ± 0.00096 kJ/mol
same,excess molar enthalpy,[1]; x1 = 0.001623,-0.0473 ± 0.0011 kJ/mol
same,excess molar enthalpy,[1]; x1 = 0.001624,-0.0471 ± 0.0011 kJ/mol
same,excess molar enthalpy,[1]; x1 = 0.002433,-0.0706 ± 0.0013 kJ/mol
same,excess molar enthalpy,[1]; x1 = 0.002434,-0.0703 ± 0.0013 kJ/mol
same,excess molar enthalpy,[1]; x1 = 0.003242,-0.0938 kJ/mol and -0.0937 kJ/mol
same,excess molar enthalpy,[1]; x1 = 0.004048,-0.117 ± 0.0018 kJ/mol
same,excess molar enthalpy,[1]; x1 = 0.00405,-0.117 ± 0.0018 kJ/mol
same,excess molar enthalpy,[1]; x1 = 0.004854,-0.14 ± 0.002 kJ/mol
same,excess molar enthalpy,[1]; x1 = 0.004858,-0.14 ± 0.002 kJ/mol
same,mass density,[2]; x1 = 0.000812,997.058 ± 0.21 kg/m3
same,mass density,[2]; x1 = 0.000813,997.058 ± 0.21 kg/m3
same,mass density,[2]; x1 = 0.001623,997.074 ± 0.21 kg/m3
same,mass density,[2]; x1 = 0.001624,997.074 ± 0.21 kg/m3
same,mass density,[2]; x1 = 0.002433,997.095 ± 0.21 kg/m3
same,mass density,[2]; x1 = 0.002434,997.094 ± 0.21 kg/m3
same,mass density,[2]; x1 = 0.003242,997.121 ± 0.21 kg/m3
same,mass density,[2]; x1 = 0.004048,997.151 ± 0.21 kg/m3
same,mass density,[2]; x1 = 0.00405,997.153 ± 0.21 kg/m3
same,mass density,[2]; x1 = 0.004854,997.187 ± 0.21 kg/m3
same,mass density,[2]; x1 = 0.004858,997.188 ± 0.21 kg/m3

# From the NIST ThermoML archive (doi:10.1021/je200093f)
